Assay results reported in patent US11007169B2, “Cis-gnetin H and trans-gnetin H as therapeutic agents” (MIDDLE TENNESSEE STATE UNIVERSITY, priority 2014, dated 2021).
Several values for one entry are separate records, joined by “and”; a condition that tells them apart may be missing. Identical values can stand only once.

Key:
[1] = test system: p65 (RelA) nuclear translocation in THP-1 cells; experiment: Indirect immunofluorescence for NF-κB nuclear translocation; type: cell-based, human; settings: pretreated 1 h, LPS 30 min; Bay 11-7082 10 μM
Procedure: (§1) THP-1 cells were maintained in RPMI 1640 medium supplemented with 10% complement-inactivated FBS and 1% penicillin/streptomycin (complete culture medium) at 37° C. with 5% CO2 supplemented. Cell concentrations were adjusted to desired concentrations for each experiment by centrifugation at 500×g for 5 min and resuspended in complete culture medium with 100 nM of PMA. Cell concentration was adjusted to 5×10^5 cells/ml for all assays and 2.5×10^5 cells/ml were used for NF-κB nuclear translocation assay. Cells were seeded onto 96-, 24-, or 12-well plates and incubated for 48 to 72 h to allow for differentiation. Cells were washed with serum-free RPMI 1640 medium before each experiment to remove the undifferentiated cells.
Differentiated THP-1 cells were pretreated with 50 μM of cis-gnetin H, trans-gnetin H, or 10 μM of Bay 11-7082 for 1 h and stimulated with 1 μg/ml of LPS for 30 min. Bay 11-7082 is a compound that inhibits IKK α/β and IκB α phosphorylation and was used as a positive control (Juliana et al., 2010, J. Biol. Chem., 285:9792-802). Treated cells were fixed, permeabilized, blocked, and stained with NF-κB, p65 primary antibody, Dylight 488 conjugated secondary antibody, and Hoechst 33342 dye, sequentially. The Hoechst and DyLight fluorophores detect changes in nuclear morphology (blue fluorescence) and NF-κB distribution (green fluorescence) respectively. Nuclear Translocation Bioapplication software on the Arrayscan VTI reader was used for image acquisition and analysis. For each well, at least 400 cells were automatically acquired and analyzed. The translocation index was calculated by measuring the average intensity difference of NF-icB between the identified cytoplasmic region and nuclear region.

[2] = test system: TNF-α in LPS-stimulated THP-1 cells; experiment: Cytokine response by ELISA, TNF-α; type: cell-based, human; settings: Homo sapiens, THP-1; 1 μM, 20 ng/ml LPS 4 h
Procedure: as §1
(§2) Differentiated THP-1 cells were pretreated with various concentrations of cis-gnetin H, trans-gnetin H, or 1 μM of dexamethasone for 1 h and stimulated with 20 ng/ml of LPS for 4 h. Dexamethasone is a synthetic glucocorticoid that suppresses cytokine response and was used as a positive control (Abraham et al., 2006, J. Exp. Med., 203:1883-9; Steer et al., J. Biol. Chem., 2000, 275(24):18432-40). Supernatants were collected for human cytokine ELISAs and the manufacturer's protocol was followed to assess the cytokine response. Cells remaining after the supernatant collection were tested for relative viability by Alamar Blue cytotoxicity assay as described earlier.

[3] = test system: IL-1β in LPS-stimulated THP-1 cells; experiment: Cytokine response by ELISA, IL-1β; type: cell-based, human; settings: Homo sapiens, THP-1; 1 μM, 20 ng/ml LPS 4 h
Procedure: as §1, §2

[4] = test system: IL-8 in LPS-stimulated THP-1 cells; experiment: Cytokine response by ELISA, IL-8; type: cell-based, human; settings: Homo sapiens, THP-1; 1 μM, 20 ng/ml LPS 4 h
Procedure: as §1, §2

[5] = test system: A549 lung cancer cell line; settings: literature values; read-out: IC50 against the A549 lung cancer cell line; cited from earlier work

For `Cc1ccc(S(=O)(=O)C=CC#N)cc1` [Bay 11-7082, 3-(4-methylphenylsulfonyl)-2-propenenitrile, reference compound], which p65 nuclear translocation [1] is on record?
Its p65 nuclear translocation is “inhibited the p65 nuclear translocation”.

What does the source list for `C[C@@H]1C[C@H]2[C@@H]3CCC4=CC(=O)C=C[C@]4(C)[C@@]3(F)[C@@H](O)C[C@]2(C)[C@@]1(O)C(=O)CO` [Dexamethasone, dexamethasone, reference compound]?
inhibition at 1 µM [2]: 58%; inhibition at 1 µM [3]: 56%; inhibition at 1 µM [4]: 63%

For `Oc1ccc(C=Cc2cc(O)cc(O)c2)cc1` [Resveratrol, 3,5,4′-trihydroxystilbene], which IC50 [5] is on record?
The IC50 was 8.9 µM and > 10 µM.
